We go through 25 molecules from US12655106B2 (Eikonizo Therapeutics, Inc., priority 2021, dated 2026).

A value given as a limit tells only on which side of the number the result lay.

In one assay the target is T1, Full length Human HDAC8 (Homo sapiens, UniProt Q9BY41).
T1 construct: Full length Human HDAC8; HIS (N); host or cells: baculovirus expression system
T1 sequence (Q9BY41 1-377): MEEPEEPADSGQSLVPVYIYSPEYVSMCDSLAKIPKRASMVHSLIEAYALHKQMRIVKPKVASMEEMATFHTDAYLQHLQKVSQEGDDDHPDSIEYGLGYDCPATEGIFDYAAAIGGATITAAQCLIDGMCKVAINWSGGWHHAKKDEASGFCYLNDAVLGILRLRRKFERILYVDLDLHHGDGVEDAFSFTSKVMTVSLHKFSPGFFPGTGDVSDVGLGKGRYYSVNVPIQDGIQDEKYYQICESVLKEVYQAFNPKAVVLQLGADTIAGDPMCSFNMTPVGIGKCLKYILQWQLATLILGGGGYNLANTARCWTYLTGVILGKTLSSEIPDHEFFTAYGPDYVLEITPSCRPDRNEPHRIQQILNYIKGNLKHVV
Kind of assay: Caliper endpoint assay for HDAC enzymatic activity (HDAC8). Type of assay: biochemical. The note with it: in vitro enzymatic, 30 min pre-incubation, 1 μM substrate peptide.

The target of the next assay is T2, Full length Human HDAC6 (Homo sapiens, UniProt Q9UBN7).
T2 construct: Full length Human HDAC6; FLAG (C); host or cells: baculovirus expression system
T2 sequence (Q9UBN7 1-1215): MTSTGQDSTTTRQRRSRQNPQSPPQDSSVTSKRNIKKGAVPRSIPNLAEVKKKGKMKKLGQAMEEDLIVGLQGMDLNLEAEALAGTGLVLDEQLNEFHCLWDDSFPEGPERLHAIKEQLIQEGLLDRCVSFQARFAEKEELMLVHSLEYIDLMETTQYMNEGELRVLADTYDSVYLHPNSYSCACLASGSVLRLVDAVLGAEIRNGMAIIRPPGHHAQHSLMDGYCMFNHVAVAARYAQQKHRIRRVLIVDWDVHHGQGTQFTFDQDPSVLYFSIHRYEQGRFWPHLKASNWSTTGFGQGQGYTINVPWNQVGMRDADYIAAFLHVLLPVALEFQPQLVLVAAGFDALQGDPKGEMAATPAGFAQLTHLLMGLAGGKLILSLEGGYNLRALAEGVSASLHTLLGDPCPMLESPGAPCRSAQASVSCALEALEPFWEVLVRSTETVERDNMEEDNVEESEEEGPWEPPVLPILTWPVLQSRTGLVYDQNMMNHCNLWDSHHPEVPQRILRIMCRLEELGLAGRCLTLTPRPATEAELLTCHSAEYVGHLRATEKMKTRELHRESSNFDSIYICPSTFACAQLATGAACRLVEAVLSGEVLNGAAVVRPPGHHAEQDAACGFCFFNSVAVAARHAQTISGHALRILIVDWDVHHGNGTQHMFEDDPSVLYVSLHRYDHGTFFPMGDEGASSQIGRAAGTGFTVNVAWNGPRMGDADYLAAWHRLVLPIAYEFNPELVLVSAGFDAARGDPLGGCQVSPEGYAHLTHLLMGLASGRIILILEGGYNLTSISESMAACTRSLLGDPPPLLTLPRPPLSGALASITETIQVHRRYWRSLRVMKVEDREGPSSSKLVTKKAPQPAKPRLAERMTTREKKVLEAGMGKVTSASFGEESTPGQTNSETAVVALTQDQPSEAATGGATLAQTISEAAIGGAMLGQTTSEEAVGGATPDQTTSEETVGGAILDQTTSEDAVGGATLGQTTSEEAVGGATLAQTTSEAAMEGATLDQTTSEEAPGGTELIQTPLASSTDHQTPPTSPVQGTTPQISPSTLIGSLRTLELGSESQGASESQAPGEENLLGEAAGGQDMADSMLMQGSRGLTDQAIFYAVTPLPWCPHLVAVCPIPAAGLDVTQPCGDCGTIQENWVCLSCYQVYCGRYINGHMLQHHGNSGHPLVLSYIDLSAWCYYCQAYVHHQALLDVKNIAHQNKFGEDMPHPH
Kind of assay: Caliper endpoint assay for HDAC enzymatic activity (HDAC6). It counts as biochemical. Conditions: for IC50: in vitro enzymatic, Caliper endpoint assay, 30 min pre-incubation, 1 μM substrate peptide; for Selectivity (6 v 8): ratio of HDAC8 IC50/HDAC6 IC50.

On Full length Human HDAC8, `CN1CCC[C@]2(C1)C[C@H](N1CCc3cc(C(=O)NO)cc(F)c3C1)C2` (single isomer, unassigned) [Compound 344, 8-fluoro-N-hydroxy-2-((2s,4r)-6-methyl-6-azaspiro[3.5]nonan-2-yl)-1,2,3,4-tetrahydroisoquinoline-6-carboxamide] came in with an IC50 of 10000 to 100000 nM. Moreover, at Full length Human HDAC6, the IC50 lay within 1 to 100 nM and the “Selectivity (6 v 8)” value is recorded as “IV (IV: >100-1000)”.

Take `CC[C@H]1Cc2c(F)cc(C(=O)NO)cc2CN1CC1CC2(CCCCC2)C1` (single isomer, unassigned) [Compound 522]: the results for the IC50 against Full length Human HDAC8 and against Full length Human HDAC6 were 100 to 1000 nM and 1 to 100 nM, respectively. Also, at Full length Human HDAC6, the “Selectivity (6 v 8)” value is “III (III: >10-100)”.

For the molecule `O=C(NO)c1cc(F)c2c(c1)CCN(C1CCC13COC3)C2` (stereo not shown) [Compound 300, 8-fluoro-2-(2-oxaspiro[3.3]heptan-7-yl)-3,4-dihydro-1H-isoquinoline-6-carbohydroxamic acid], the IC50 on Full length Human HDAC8 was 1000 to 10000 nM; against Full length Human HDAC6, 1 to 100 nM. Besides, the “Selectivity (6 v 8)” value on Full length Human HDAC6 is recorded as “IV (IV: >100-1000)”.

The molecule `CC[C@H]1Cc2c(F)cc(C(=O)NO)cc2CN1C1CCCC1` (single isomer, unassigned) [Compound 581] registered an IC50 against Full length Human HDAC8 of 10000 to 100000 nM. At Full length Human HDAC6, the IC50 fell in the range of 100 to 1000 nM and the “Selectivity (6 v 8)” value is reported as “III (III: >10-100)”.

Turning to `C[C@H]1C[C@@H]2c3c(F)cc(C(=O)NO)cc3CCN2C1` (single isomer, unassigned) [Compound 153], the IC50 against Full length Human HDAC8 lay within 1000 to 10000 nM; against Full length Human HDAC6, 100 to 1000 nM.

Take `O=C(NO)c1cc(F)c2c(c1)CCN1CCCC[C@@H]21` (single isomer, unassigned) [Compound 139]: the IC50 was 1000 to 10000 nM on Full length Human HDAC8 and 1 to 100 nM at Full length Human HDAC6.

`O=C(NO)c1cc(F)c2c(c1)CCN(C1CCC13CCNCC3)C2` (stereo not shown) [Compound 357, 2-(7-azaspiro[3.5]nonan-3-yl)-8-fluoro-3,4-dihydro-1H-isoquinoline-6-carbohydroxamic acid] showed an IC50 against Full length Human HDAC8 of 1000 to 10000 nM. At Full length Human HDAC6, the IC50 fell in the range of 1 to 100 nM and the “Selectivity (6 v 8)” value is given as “IV (IV: >100-1000)”.

On Full length Human HDAC8, `CN1[C@@H]2CC[C@H]1CC(CN1CCc3cc(C(=O)NO)cc(F)c3C1)C2` (single isomer, unassigned) [Compound 483] gave an IC50 of 1000 to 10000 nM. On Full length Human HDAC6, the IC50 lay within 1 to 100 nM and the “Selectivity (6 v 8)” value is given as “IV (IV: >100-1000)”.

`CN1CCC2(CC1)CC(CN1CCc3cc(C(=O)NO)cc(F)c3C1)C2` [Compound 469, 8-fluoro-2-[(7-methyl-7-azaspiro[3.5]nonan-2-yl)methyl]-3,4-dihydro-1H-isoquinoline-6-carbohydroxamic acid] came in with an IC50 against Full length Human HDAC8 of 1000 to 10000 nM. Moreover, at Full length Human HDAC6, the IC50 lay in the range of 1 to 100 nM and the “Selectivity (6 v 8)” value is “IV (IV: >100-1000)”.

For the molecule `CC[C@H]1Cc2c(F)cc(C(=O)NO)cc2CN1CC1COC1` (single isomer, unassigned) [Compound 216], the IC50 against Full length Human HDAC8 is over 100000 nM. Moreover, on Full length Human HDAC6, the IC50 was in the range of 1 to 100 nM and the “Selectivity (6 v 8)” value was “V (V: >1000)”.

With `O=C(NO)c1ccc2c(c1)C[C@@H]1CCCN1C2` [Compound 121], on Full length Human HDAC8, the IC50 was 10000 to 100000 nM. On Full length Human HDAC6, the concentration for half-maximal inhibition (IC50) lay within 100 to 1000 nM and the “Selectivity (6 v 8)” value is listed as “III (III: >10-100)”.

As to `CC(=O)N1CCC2(CC1)CC(N1CCc3cc(C(=O)NO)cc(F)c3C1)C2` [Compound 199, 2-(7-acetyl-7-azaspiro[3.5]nonan-2-yl)-8-fluoro-N-hydroxy-1,2,3,4-tetrahydroisoquinoline-6-carboxamide], the IC50 at Full length Human HDAC8 fell in the range of 10000 to 100000 nM. At Full length Human HDAC6, the IC50 was 1 to 100 nM and the “Selectivity (6 v 8)” value is listed as “IV (IV: >100-1000)”.

At Full length Human HDAC8, `O=C(NO)c1cc(F)c2c(c1)CN(C[C@H]1CCCCO1)CC2` (single isomer, unassigned) [Compound 215] gave an IC50 of 100 to 1000 nM. In addition, on Full length Human HDAC6, the IC50 is 1 to 100 nM and the “Selectivity (6 v 8)” value was “II (II: >1-10)”.

As for `O=C(NO)c1ccc2c(c1)C[C@@H]1COCCN1C2` [Compound 131], the IC50 fell in the range of 1000 to 10000 nM at Full length Human HDAC8 and 100 to 1000 nM at Full length Human HDAC6. On Full length Human HDAC6, the “Selectivity (6 v 8)” value is given as “III (III: >10-100)”.

The molecule `CC1(C)C[C@@H]2Cc3c(F)cc(C(=O)NO)cc3CN2C1` [Compound 127] yielded an IC50 on Full length Human HDAC8 of 1000 to 10000 nM. Besides, at Full length Human HDAC6, the IC50 is 1 to 100 nM and the “Selectivity (6 v 8)” value was “IV (IV: >100-1000)”.

As for `CC[C@@H]1Cc2c(F)cc(C(=O)NO)cc2CN1CC12CC(NC)(C1)C2` (single isomer, unassigned) [Compound 524], the IC50 at Full length Human HDAC8 was in the range of 1000 to 10000 nM. Also, at Full length Human HDAC6, the IC50 lay within 1 to 100 nM and the “Selectivity (6 v 8)” value is on record as “III (III: >10-100)”.

In the case of `CC[C@H](c1ccccc1)N1CCc2cc(C(=O)NO)cc(F)c2C1` [Compound 30], the IC50 at Full length Human HDAC8 fell in the range of 1000 to 10000 nM; on Full length Human HDAC6, 1 to 100 nM.

In turn, `CC(=O)N1CC2(CCC(N3CCc4cc(C(=O)NO)cc(F)c4C3)C2)C1` (stereo not shown) [Compound 391, 2-(2-acetyl-2-azaspiro[3.4]octan-6-yl)-8-fluoro-N-hydroxy-1,2,3,4-tetrahydroisoquinoline-6-carboxamide] came in with an IC50 on Full length Human HDAC8 of 10000 to 100000 nM. On Full length Human HDAC6, the IC50 is 1 to 100 nM and the “Selectivity (6 v 8)” value was “IV (IV: >100-1000)”.

Molecule `O=C(NO)c1cc(F)c2c(c1)CCN(C1CCC3(CC1)C[S+]([O-])C3)C2` (stereo not shown) [Compound 426, 8-fluoro-2-(2-oxo-2MA-thiaspiro[3.5]nonan-7-yl)-3,4-dihydro-1H-isoquinoline-6-carbohydroxamic acid] yielded an IC50 against Full length Human HDAC8 of over 100000 nM. Moreover, at Full length Human HDAC6, the IC50 was in the range of 1 to 100 nM and the “Selectivity (6 v 8)” value was “V (V: >1000)”.

As to `CC[C@@H]1N(Cc2ccc(C(=O)NO)cc2F)CC12CCCC2` (single isomer, unassigned) [Compound 168], the IC50 against Full length Human HDAC8 fell in the range of 1000 to 10000 nM; on Full length Human HDAC6 it was 100 to 1000 nM.

At Full length Human HDAC8, `O=C(NO)c1cc(F)c2c(c1)CCN([C@H]1CCNC3(CCC3)C1)C2` (single isomer, unassigned) [Compound 435] yielded an IC50 of 1000 to 10000 nM. Besides, at Full length Human HDAC6, the IC50 is 1 to 100 nM and the “Selectivity (6 v 8)” value is given as “IV (IV: >100-1000)”.

Regarding `O=C(NO)c1cc(F)c2c(c1)CCN([C@@H]1CCC3(CCCCC3)C1)C2` (single isomer, unassigned) [Compound 110], the IC50 was in the range of 10000 to 100000 nM against Full length Human HDAC8 and 1 to 100 nM against Full length Human HDAC6.

Take `CC(=O)N1CC2(CCC2N2CCc3cc(C(=O)NO)cc(F)c3C2)C1` (stereo not shown) [Compound 304, 2-(2-acetyl-2-azaspiro[3.3]heptan-7-yl)-8-fluoro-3,4-dihydro-1H-isoquinoline-6-carbohydroxamic acid]: the IC50 on Full length Human HDAC8 was in the range of 1000 to 10000 nM. At Full length Human HDAC6, the IC50 was in the range of 1 to 100 nM and the “Selectivity (6 v 8)” value is recorded as “IV (IV: >100-1000)”.

`CC(=O)N1CCC2(CC1)CC(CN1CCc3cc(C(=O)NO)cc(F)c3C1)C2` [Compound 471, 2-[(7-acetyl-7-azaspiro[3.5]nonan-2-yl)methyl]-8-fluoro-3,4-dihydro-1H-isoquinoline-6-carbohydroxamic acid] displayed an IC50 against Full length Human HDAC8 of 10000 to 100000 nM. Besides, at Full length Human HDAC6, the IC50 was in the range of 1 to 100 nM and the “Selectivity (6 v 8)” value is “IV (IV: >100-1000)”.

Turning to `O=C(NO)c1cc(F)c2c(c1)CCN([C@H]1CCOC3(CCC3)C1)C2` (single isomer, unassigned) [Compound 445], on Full length Human HDAC8, the IC50 was 10000 to 100000 nM. At Full length Human HDAC6, the IC50 lay within 1 to 100 nM and the “Selectivity (6 v 8)” value was “IV (IV: >100-1000)”.

As usually defined, the IC50 is the concentration that inhibits the measured activity by half.
